Values joined by “and” are separate entries in the source; they are usually repeats but may differ in a detail not shown here. Identical values can stand only once.
Tests used:
[1] = test system: CCR5 coreceptor-trophic BaL subtype B strain of HIV-1; experiment: Antiviral assay in fresh human PBMCs, HIV-1 BaL; assay type: cell-based; conditions: for antiviral activity against HIV-1 BaL (macrophage tropic): concentrations up to a high test concentration of 500 μM
Experimental: (§1) The peptide Ac-LKKTETQ-OH was evaluated in fresh human peripheral blood mononuclear cells (PBMCs) against CXCR4 coreceptor-trophic HT/92/599 and the CCR5 coreceptor-trophic BaL subtype B strains of HIV-1. The peptide was added to the cells at 8 hours prior to infection and immediately prior to infection. The AZT control compound was evaluated in parallel with the peptide and yielded EC50 values of 8 and 6 nM against HIV-1HT/92/599 and values of 6 and 10 nM against HIV-1PaL.

[2] = test system: CXCR4 coreceptor-trophic HT/92/599 strain of HIV-1; experiment: Antiviral assay in fresh human PBMCs, HIV-1 HT/92/599; assay type: cell-based; conditions: for antiviral activity against HIV-1 HT/92/599 (T-cell tropic): concentrations up to a high test concentration of 500 μM
Experimental: as §1

[3] = Pilot trial: routine pathology and adverse effects; assay type: in vivo, human; conditions: 10 mg s.c. once a week for 12 weeks
Experimental: (§2) The peptide Ac-LKKTETQ-OH was the active therapeutic agent investigated in a pilot trial on twenty similar HIV positive men and women, some who had progressed to severe AIDS.
(§3) Each man or women was injected subcutaneously with a composition comprising the peptide Ac-LKKTETQ-OH (10 mg), once a week for 12 weeks. Blood tests for CD4 and CD8-positive cells and HIV viral load (by PCR) and routine pathology were conducted at baseline, 8 weeks and 12 weeks. […] A small drop in blood glucose was seen but this was not determined to be significant.

HIV = experiment: Pilot trial: HIV viral load (by PCR); assay type: in vivo
Experimental: as §2, §3

[4] = test system: CD8-positive white blood cell; experiment: Pilot trial: CD8-positive white blood cell counts; assay type: in vivo, human
Experimental: as §2, §3

[5] = test system: CD4-positive white blood cell; experiment: Pilot trial: CD4-positive white blood cell counts; assay type: in vivo, human
Experimental: as §2, §3

Pilot trial: body weight = assay type: in vivo, human; conditions: HIV positive patients, 10 mg s.c. once a week, one value per patient (A-T)
Experimental: as §2, §3

[6] = HIV positive patients and those showing symptoms of AIDS
[7] = HIV positive patients, 10 mg s.c. once a week, 8 weeks, one value per patient (A-T)
[8] = HIV positive patients, 10 mg s.c. once a week, 12 weeks, one value per patient (A-T)

Row | Molecule | EC50 ([1]; two values, evaluated in parallel with peptide added 8 hours prior to and immediately prior to infection, read-out: EC50 against HIV-1PaL) | EC50 ([2]; two values, evaluated in parallel with peptide added 8 hours prior to and immediately prior to infection, read-out: EC50 against HIV-1HT/92/599) | adverse effect [3] | Hemoglobin levels, Creatinine, ALT, AST, Alkaline Phos, Bilirubin, GGT, Albumin, Total Protein and globulin tests ([3]; baseline, 8 and 12 weeks) | blood glucose ([3]; not determined to be significant) | viral load (summary) (HIV; [6]) | HIV Viral Load, 8 weeks (HIV; HIV positive patients, 10 mg s.c. once a week, 8 weeks, by PCR, one value per patient (A-T)) | HIV Viral Load, 12 weeks (HIV; HIV positive patients, 10 mg s.c. once a week, 12 weeks, by PCR, one value per patient (A-T)) | antiviral activity against HIV-1 BaL (macrophage tropic) ([1]; listed as SEQ ID NO: 1) | antiviral activity against HIV-1 BaL (macrophage tropic) ([1]; listed as SEQ ID NO:1) | CD8 positive white blood cell counts (summary) [4, 6] | CD8-positive white blood cell count, 8 weeks [4, 7] | CD8-positive white blood cell count, 12 weeks [4, 8] | CD4 positive white blood cell counts (summary) [5, 6] | CD4-positive white blood cell count, 8 weeks [5, 7] | CD4-positive white blood cell count, 12 weeks [5, 8] | antiviral activity against HIV-1 HT/92/599 (T-cell tropic) ([2]; listed as SEQ ID NO: 1) | antiviral activity against HIV-1 HT/92/599 (T-cell tropic) ([2]; listed as SEQ ID NO:1) | Weight, 8 weeks (Pilot trial: body weight; 8 weeks) | Weight, 12 weeks (Pilot trial: body weight; 12 weeks)
1 | Cc1cn([C@H]2C[C@H](N=[N+]=[N-])[C@@H](CO)O2)c(=O)[nH]c1=O [AZT, reference compound] | 6 nM and 10 nM | 8 nM and 6 nM | – | – | – | – | – | – | – | – | – | – | – | – | – | – | – | – | – | –
2 | Ac-LKKTETQ-OH [Ac-LKKTETQ-OH] | – | – | No adverse effect | did not show anything remarkable | small drop | decreased viral load significantly | undetectable (9×) and 28410 copies/ml and 450 copies/ml and 8214 copies/ml and 17616 copies/ml and 15201 copies/ml and 145 copies/ml and 12004 copies/ml and 8781 copies/ml and 200 copies/ml and 98687 copies/ml and 24 copies/ml | undetectable (19×) and 5151 copies/ml | no effect | did not demonstrate antiviral activity | increased | 980 and 360 and 1310 and 1379 and 1044 and 1296 and 959 and 2120 and 866 and 773 and 594 (2×) and 606 and 939 and 617 and 648 and 456 and 1108 and 1125 | 1330 and 459 and 1718 and 1394 and 1339 and 1226 and 1190 and 2647 and 958 and 800 and 712 and 893 and 983 and 1034 and 880 and 890 and 521 and 1384 and 1201 and 660 | increased | 816 and 415 and 158 and 407 and 456 and 477 and 348 and 381 and 439 and 301 and 335 and 543 and 428 and 466 (2×) and 259 and 471 and 300 and 316 and 602 | 879 and 604 and 175 and 425 and 625 and 662 and 404 and 498 and 510 and 424 and 452 and 749 and 616 and 602 and 368 and 469 and 571 and 430 and 416 and 675 | no effect | did not demonstrate antiviral activity | 92 and 52 and 59 and 71 and 82 and 79 (2×) and 72 (2×) and 60.5 and 50.5 and 58 and 71.5 and 68.5 and 61 and 56 and 55 and 70 and 78 (2×) | 92 and 52 and 72 (4×) and 82 and 79 and 71 (2×) and 51 and 65 and 80 and 69 and 60 and 55 and 58 and 70.5 and 78.5 (2×)
